Measured values published in ChEMBL document CHEMBL1201862, “PubChem BioAssay data set” (2004).
Activity calls are given as the source filed them.

What was measured:
[1] = viability of uninfected HEp-2 cells – cell-based, HTS, cytotoxicity control for RSV inhibitor project, dose response (AID 2410); assay type: functional; settings: human respiratory syncytial virus
[2] = luciferase reporter signal suppression in cells – H4 neuroglioma cells, luminescence, dose response (AID 1990); assay type: functional, cell-based
[3] = Luminescence Cell-Based Dose Response HTS to Identify Inhibitors of 5'UTR Stem-Loop Driven Prion Protein mRNA Translation in H4 Neuroglioblastoma Cells. [Related pubchem assays: 1827 (Project Summary), 1813 (Primary HTS)]; assay type: functional
[4] = alpha-synuclein stem-loop luciferase translation blockers – H4 neuroglioma cells, luminescence, confirmation (AID 1988); assay type: functional, cell-based
[5] = Trypanosoma cruzi growth suppression in host cells – NIH3T3 host cells, beta-gal luminescence, confirmation (AID 2044); assay type: functional, cell-based;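 further: intracellular parasites grown in NIH/3T3 mouse fibroblasts as host cells; luminescent beta-galactosidase reporter signal from transgenic T. cruzi replicating inside host cells; inhibitors lower the luminescence signal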
[6] = NIH3T3 cell viability loss – ATP luminescence, mouse fibroblasts, counter-screen, dose response (AID 2010); assay type: functional, cell-based;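 further: cells exposed to compound for about 90 hours before reading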
[7] = target: DNA topoisomerase (Yersinia pestis, UniProt A0A2S9PM60); assay: Yersinia topoisomerase I cleavage product accumulation – biochemical, cherry-pick, dose response (AID 588525)
[8] = target: T1, Hexokinase HKDC1 (Homo sapiens, UniProt Q2TB90); assay: inhibition of HKDC1 glucose phosphorylation – biochemical, W721R variant, dose response (AID 504729); assay type: functional
T1 sequence (Q2TB90 whole entry): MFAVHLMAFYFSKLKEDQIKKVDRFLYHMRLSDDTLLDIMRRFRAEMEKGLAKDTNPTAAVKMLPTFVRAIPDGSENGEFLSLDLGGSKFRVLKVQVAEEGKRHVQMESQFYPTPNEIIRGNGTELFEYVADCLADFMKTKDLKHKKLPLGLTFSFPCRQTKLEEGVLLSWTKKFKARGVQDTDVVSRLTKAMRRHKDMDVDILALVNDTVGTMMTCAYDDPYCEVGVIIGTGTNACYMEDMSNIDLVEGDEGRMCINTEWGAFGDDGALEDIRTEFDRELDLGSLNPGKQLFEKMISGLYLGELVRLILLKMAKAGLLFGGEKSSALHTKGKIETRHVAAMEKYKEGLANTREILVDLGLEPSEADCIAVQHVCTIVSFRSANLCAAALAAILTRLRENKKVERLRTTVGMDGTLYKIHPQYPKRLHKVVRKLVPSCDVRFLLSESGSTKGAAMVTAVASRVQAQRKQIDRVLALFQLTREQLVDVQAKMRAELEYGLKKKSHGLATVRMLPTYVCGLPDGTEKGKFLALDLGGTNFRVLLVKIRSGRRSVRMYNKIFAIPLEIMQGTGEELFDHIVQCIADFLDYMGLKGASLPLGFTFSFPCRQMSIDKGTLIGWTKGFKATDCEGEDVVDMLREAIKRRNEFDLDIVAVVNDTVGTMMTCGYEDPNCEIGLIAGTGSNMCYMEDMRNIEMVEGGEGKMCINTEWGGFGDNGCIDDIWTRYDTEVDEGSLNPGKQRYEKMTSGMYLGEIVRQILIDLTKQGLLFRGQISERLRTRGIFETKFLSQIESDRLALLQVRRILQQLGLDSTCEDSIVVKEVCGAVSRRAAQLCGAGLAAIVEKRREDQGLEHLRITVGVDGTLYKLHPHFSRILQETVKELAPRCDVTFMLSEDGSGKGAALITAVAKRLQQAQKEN

[9] = target: Hexokinase-1 (Homo sapiens, UniProt P19367); assay: hexokinase 1 activity inhibitors, potency – biochemical, set 2, resazurin fluorescence coupled readout, selectivity assay for HKDC1 inhibitor project, SAR follow-up (AID 588356); assay type: functional
[10] = target: T2, Replicative DNA helicase DnaB (Mycobacterium tuberculosis, UniProt P9WMR3); assay: DnaB intein splicing inhibitors, dose response, biochemical, cell-free fluorescence (AID 449749); assay type: functional
T2 sequence (P9WMR3 whole entry): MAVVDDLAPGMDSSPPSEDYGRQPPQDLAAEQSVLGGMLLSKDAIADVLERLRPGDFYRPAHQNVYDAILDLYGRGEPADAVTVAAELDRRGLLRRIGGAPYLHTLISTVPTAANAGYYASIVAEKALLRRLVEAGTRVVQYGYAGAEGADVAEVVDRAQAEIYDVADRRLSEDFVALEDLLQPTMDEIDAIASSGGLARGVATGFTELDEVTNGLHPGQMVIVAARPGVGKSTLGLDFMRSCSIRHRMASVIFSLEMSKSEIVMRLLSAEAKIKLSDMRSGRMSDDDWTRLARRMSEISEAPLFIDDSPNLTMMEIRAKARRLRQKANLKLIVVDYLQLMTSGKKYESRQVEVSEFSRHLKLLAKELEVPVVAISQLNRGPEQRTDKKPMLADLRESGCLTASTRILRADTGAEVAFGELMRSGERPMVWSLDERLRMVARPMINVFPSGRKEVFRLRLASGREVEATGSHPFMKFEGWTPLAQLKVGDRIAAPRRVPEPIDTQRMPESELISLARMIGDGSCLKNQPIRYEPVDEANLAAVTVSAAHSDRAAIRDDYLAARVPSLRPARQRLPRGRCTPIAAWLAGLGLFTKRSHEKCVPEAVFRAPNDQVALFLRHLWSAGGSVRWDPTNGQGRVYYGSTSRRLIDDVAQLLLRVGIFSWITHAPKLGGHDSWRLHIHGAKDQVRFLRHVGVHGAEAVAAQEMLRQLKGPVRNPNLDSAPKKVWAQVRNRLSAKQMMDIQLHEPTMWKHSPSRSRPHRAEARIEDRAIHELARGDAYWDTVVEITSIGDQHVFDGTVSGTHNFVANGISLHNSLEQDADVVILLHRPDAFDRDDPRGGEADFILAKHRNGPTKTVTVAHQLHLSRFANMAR

[11] = target: T3, Protein RecA (Mycobacterium tuberculosis, UniProt P9WHJ3); assay: Fluorescence Cell-Free Homogeneous Dose Retest to Identify Inhibitors of RecA-Intein Splicing Activity. [Related pubchem assays (depositor defined):AID2097, AID2223, AID489010, AID492950]; assay type: functional
T3 sequence (P9WHJ3 whole entry): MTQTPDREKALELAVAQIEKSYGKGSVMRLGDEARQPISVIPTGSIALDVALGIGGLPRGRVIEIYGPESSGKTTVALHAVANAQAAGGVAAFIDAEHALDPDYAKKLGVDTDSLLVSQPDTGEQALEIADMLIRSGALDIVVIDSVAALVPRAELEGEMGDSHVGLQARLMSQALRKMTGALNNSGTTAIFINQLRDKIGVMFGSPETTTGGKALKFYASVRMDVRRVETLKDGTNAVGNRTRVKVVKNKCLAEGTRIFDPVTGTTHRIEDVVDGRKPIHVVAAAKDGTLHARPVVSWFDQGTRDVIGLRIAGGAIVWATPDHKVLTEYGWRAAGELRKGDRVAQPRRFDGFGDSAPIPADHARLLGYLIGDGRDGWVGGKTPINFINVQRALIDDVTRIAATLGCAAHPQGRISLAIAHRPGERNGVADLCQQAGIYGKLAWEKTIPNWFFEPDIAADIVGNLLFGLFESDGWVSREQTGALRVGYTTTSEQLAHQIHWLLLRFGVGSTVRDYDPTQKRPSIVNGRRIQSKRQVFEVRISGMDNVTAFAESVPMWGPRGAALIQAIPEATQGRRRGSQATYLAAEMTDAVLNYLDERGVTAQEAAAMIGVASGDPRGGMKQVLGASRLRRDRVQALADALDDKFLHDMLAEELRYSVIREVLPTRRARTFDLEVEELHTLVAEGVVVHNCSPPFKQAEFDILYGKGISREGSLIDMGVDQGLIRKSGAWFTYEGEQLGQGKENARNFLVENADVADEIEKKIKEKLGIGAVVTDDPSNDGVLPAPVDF

[12] = target: T1, Hexokinase HKDC1; assay: analog inhibition of human HKDC1 activity – biochemical, set 2, SAR follow-up (AID 588355); assay type: functional
[13] = target: Voltage-gated inwardly rectifying potassium channel KCNH2 (Homo sapiens, UniProt Q12809); settings: Potency;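 further: confirmatory quantitative high-throughput screen measuring inhibition of hERG channel activity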
[14] = test system: INS1; assay: beta-cell survival under cytokine stress – INS-1E, ATP luminescence, dry powder, dose response (AID 488844); assay type: functional, cell-based; settings: Rattus norvegicus
[15] = test system: INS1; assay: INS-1E mitochondrial potential loss inhibitors – cell-based, JC-1 fluorescence, dry powder, set 2, dose response (AID 488867); assay type: functional; settings: Rattus norvegicus
[16] = test system: INS1; assay: INS-1E mitochondrial potential rescue under cytokines – cell-based, JC-1 fluorescence ratio, dry powder, dose response (AID 488931); assay type: functional; settings: Rattus norvegicus
[17] = target: Beta-lactamase (Pseudomonas aeruginosa, UniProt Q79MP6);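 further: biochemical dose-response test of metallo-beta-lactamase enzyme inhibition, read out by epi-absorbance; purified recombinant IMP-1 metallo-beta-lactamase with nitrocefin as substrate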
[18] = target: Beta-lactamase (Salmonella choleraesuis (strain SC-B67), UniProt Q5J463)
[19] = target: ORF 73 (Human herpesvirus 8, UniProt O40947); assay: KSHV LANA DNA-binding disruption – biochemical, fluorescence polarization, cherry-picked samples, dose response (AID 504725); set-up: species or system Human gammaherpesvirus 8;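 further: fluorescence polarization of a labeled DNA duplex reporting LANA DNA binding; potency is for inhibitors that block LANA binding to the DNA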
[20] = target: T4, Insulin-degrading enzyme (Homo sapiens, UniProt P14735); assay: recombinant IDE activation, cell-free – biochemical, fluorescence polarization, counter-screen for IDE activator project, dose response (AID 588681)
[21] = target: Keap1/Nrf2 (Homo sapiens, UniProt Q14145); assay: disruptors of Keap1 binding to Nrf2 peptide – biochemical, fluorescence polarization, cherry-picked samples, dose response (AID 588683)
[22] = target: T4, Insulin-degrading enzyme; assay: cellular IDE activation of Abeta substrate cleavage – fluorescence polarization, HEK cells, dose response (AID 588439); assay type: functional, cell-based
[23] = test system: HEK293; assay: membrane integrity loss in HEK cells – cell-based, fluorescence, cytotoxicity control for IDE activator project, dose response (AID 588440); assay type: functional; settings: Homo sapiens;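 further: cytotoxicity by LDH release measuring loss of membrane integrity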
[24] = test system: HEK293; assay: optical interference in Abeta FP readout, dose response, artefact control for IDE activator project, biochemical, fluorescence polarization (AID 588442); assay type: functional, cell-based; settings: Homo sapiens
[25] = target: Phospholipase D1 (Homo sapiens, UniProt Q13393); assay: cellular phospholipase D1 inhibition IC50 – cell-based, dose response (AID 602151); assay type: functional;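 further: cellular PLD1 assay in Calu-1 cells stimulated with PMA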
[26] = target: Phospholipase D2 (Homo sapiens, UniProt O14939); assay: cellular phospholipase D2 inhibition IC50 – cell-based, dose response (AID 602147); assay type: functional;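 further: cellular assay in HEK293 cells overexpressing GFP-tagged PLD2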

T4 sequence (P14735 whole entry): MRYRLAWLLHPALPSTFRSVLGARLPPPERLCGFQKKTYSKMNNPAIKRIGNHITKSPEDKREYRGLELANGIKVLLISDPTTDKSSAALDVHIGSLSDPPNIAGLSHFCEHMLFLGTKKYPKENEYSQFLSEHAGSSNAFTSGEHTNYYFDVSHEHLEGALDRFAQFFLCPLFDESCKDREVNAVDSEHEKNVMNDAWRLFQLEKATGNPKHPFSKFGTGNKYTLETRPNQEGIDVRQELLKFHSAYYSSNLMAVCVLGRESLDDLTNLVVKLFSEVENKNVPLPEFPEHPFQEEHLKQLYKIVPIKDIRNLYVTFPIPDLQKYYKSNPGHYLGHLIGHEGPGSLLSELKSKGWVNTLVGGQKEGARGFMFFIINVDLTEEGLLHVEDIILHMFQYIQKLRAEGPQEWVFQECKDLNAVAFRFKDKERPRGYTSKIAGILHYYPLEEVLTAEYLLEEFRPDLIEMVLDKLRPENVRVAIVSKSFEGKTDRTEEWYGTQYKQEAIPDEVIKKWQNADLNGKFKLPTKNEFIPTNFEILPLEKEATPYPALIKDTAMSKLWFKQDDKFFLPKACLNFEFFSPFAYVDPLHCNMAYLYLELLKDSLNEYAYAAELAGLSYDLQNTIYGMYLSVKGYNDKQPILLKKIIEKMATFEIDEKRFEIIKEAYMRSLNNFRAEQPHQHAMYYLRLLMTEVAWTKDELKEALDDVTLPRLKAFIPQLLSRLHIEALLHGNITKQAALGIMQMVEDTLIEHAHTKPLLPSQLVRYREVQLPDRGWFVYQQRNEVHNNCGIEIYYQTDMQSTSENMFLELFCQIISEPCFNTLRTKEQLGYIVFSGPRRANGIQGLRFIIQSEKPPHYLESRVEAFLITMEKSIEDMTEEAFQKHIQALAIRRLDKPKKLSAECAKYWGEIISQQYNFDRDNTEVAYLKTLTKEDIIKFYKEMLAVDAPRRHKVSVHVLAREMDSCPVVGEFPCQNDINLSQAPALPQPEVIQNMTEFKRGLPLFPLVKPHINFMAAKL
Chain of Hexokinase-1 (P19367 whole entry): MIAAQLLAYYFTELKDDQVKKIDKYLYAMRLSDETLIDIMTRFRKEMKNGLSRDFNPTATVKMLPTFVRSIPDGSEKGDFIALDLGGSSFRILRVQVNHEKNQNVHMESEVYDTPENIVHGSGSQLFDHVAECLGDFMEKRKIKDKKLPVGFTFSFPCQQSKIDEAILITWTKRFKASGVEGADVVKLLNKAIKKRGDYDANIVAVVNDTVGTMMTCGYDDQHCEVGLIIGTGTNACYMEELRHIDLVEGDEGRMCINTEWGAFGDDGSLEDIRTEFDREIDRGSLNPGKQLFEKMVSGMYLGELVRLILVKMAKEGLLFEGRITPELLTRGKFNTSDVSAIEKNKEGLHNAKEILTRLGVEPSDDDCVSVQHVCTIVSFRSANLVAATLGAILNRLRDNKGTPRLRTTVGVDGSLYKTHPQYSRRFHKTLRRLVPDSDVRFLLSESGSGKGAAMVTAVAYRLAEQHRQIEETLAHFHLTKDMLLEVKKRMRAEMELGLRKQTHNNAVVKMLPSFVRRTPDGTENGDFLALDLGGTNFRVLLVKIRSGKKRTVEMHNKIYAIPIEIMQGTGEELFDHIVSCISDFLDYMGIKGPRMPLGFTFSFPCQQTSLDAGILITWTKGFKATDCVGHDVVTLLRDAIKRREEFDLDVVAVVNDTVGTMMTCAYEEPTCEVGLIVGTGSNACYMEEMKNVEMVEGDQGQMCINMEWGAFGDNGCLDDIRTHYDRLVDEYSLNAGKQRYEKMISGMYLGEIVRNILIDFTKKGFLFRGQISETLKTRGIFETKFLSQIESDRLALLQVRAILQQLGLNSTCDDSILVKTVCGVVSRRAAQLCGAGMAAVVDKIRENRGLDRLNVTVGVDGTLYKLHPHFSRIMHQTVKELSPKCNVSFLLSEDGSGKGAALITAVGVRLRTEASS
Chain of Keap1/Nrf2 (Q16236 whole entry): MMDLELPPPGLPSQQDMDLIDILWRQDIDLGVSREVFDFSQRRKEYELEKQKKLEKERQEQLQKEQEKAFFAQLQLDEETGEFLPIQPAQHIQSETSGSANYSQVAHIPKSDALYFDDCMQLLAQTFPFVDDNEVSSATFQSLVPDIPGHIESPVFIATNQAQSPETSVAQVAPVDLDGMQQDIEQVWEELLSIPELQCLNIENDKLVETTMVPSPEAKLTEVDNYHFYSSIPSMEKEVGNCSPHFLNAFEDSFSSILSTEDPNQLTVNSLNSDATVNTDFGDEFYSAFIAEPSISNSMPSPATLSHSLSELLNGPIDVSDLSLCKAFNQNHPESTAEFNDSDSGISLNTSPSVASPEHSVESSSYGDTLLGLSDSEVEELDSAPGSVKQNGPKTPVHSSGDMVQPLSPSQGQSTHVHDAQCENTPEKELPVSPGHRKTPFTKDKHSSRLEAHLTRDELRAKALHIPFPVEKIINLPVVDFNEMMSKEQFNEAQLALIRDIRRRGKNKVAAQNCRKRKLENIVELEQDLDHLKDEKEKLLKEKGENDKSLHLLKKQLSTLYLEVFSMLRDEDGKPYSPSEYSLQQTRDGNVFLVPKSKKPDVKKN
Chain of Keap1/Nrf2 (Q14145 whole entry): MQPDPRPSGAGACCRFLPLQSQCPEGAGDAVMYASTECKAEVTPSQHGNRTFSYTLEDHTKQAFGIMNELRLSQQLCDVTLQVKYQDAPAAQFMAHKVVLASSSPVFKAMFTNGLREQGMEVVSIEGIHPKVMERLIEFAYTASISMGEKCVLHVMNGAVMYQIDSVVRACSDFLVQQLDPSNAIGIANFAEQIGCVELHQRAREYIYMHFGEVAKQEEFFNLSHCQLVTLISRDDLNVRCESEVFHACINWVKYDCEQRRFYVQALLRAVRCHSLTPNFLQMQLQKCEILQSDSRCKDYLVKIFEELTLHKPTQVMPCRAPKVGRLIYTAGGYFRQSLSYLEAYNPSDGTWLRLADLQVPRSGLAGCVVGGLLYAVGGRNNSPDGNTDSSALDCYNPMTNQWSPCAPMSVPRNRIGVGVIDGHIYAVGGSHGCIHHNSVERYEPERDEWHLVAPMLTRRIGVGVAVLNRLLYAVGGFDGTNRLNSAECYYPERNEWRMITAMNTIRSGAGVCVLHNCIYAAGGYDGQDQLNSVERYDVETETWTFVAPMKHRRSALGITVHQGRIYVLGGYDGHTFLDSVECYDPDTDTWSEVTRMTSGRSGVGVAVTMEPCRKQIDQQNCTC
Chain of Phospholipase D1 (Q13393 whole entry): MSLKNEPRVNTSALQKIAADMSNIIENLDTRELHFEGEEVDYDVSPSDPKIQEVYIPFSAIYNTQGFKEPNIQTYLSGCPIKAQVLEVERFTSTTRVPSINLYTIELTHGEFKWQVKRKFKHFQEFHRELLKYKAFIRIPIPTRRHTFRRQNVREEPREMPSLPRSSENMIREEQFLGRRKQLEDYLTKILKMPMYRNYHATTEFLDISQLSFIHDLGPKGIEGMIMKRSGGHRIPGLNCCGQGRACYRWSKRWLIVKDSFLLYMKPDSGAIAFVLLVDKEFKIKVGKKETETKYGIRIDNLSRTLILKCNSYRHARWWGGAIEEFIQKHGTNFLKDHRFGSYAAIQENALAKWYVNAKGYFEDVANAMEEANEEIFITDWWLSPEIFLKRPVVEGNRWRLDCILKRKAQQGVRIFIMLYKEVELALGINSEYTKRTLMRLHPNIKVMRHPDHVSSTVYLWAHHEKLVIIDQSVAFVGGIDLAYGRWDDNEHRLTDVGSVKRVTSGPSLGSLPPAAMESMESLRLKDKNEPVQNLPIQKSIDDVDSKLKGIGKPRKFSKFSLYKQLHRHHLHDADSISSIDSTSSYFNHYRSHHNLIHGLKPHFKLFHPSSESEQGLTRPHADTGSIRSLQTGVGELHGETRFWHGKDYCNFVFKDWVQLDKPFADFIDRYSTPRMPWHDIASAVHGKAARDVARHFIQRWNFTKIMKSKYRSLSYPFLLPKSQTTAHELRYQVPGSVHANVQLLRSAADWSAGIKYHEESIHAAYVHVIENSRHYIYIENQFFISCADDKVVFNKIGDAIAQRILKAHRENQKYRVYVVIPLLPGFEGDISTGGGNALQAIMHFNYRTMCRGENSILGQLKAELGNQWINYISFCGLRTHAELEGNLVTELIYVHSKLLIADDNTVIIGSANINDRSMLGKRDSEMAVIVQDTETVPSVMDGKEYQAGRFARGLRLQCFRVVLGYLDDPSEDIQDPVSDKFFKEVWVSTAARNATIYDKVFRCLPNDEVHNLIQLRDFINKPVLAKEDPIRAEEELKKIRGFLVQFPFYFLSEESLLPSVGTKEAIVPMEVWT
Chain of Beta-lactamase (Salmonella choleraesuis (strain SC-B67), UniProt Q5J463) (Q5J463 whole entry): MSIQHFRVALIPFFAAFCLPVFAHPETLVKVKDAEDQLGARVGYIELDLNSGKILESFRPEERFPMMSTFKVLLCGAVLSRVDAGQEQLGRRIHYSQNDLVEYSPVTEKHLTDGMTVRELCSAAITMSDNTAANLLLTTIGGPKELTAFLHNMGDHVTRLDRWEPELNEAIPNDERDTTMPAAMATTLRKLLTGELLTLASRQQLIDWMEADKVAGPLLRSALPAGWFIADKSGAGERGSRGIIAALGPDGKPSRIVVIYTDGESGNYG
Chain of Beta-lactamase (Pseudomonas aeruginosa, UniProt Q79MP6) (Q79MP6 whole entry): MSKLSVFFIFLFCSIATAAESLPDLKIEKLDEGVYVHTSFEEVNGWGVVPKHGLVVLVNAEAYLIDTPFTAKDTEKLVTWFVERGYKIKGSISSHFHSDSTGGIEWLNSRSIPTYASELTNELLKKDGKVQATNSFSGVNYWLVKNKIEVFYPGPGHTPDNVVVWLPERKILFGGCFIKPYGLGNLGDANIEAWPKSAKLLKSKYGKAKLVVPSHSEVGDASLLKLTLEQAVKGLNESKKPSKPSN

Compound: COc1ccc(-c2nc3c(c(=O)[nH]c(=O)n3Cc3ccccc3)n2Cc2ccccc2)cc1
- CC50 [1]: 7.31 µM (active)
- EC50 [2]: 26.7 µM (active)
- EC50 [3]: > 120 µM (not active)
- EC50 [4]: 17.7 µM (active)
- EC50 [5]: 826 nM (active)
- EC50 [6]: > 60 µM (inconclusive)
- AC50 [7]: 7.41 µM (active)

Compound: CC(=O)NC1C(=O)N(CCN2CCOCC2)c2ccc(C)cc21 (configuration not stated)
- IC50 [8]: 4.71 µM (active)
- IC50 [9]: > 80 µM (inactive)
- AC50 [10]: 22.1 µM (active)
- EC50 [11]: 8.53 µM (active)
- IC50 [12]: 4.45 µM (active)

Compound: CCCCOc1cc(CC2CNC(=O)N2)ccc1OC (configuration not stated) [RO-201724]
- CC50 [1]: 23.8 µM (active)
- AC50 [13]: 3.55 µM (inconclusive)

Compound: COc1ccc(S(=O)(=O)N(C)C[C@@H]2Oc3c(NC(=O)Nc4ccccc4)cccc3C(=O)N([C@@H](C)CO)C[C@H]2C)cc1
- AC50 [14]: > 260 µM (inactive)
- AC50 [15]: 58.9 µM (active)
- AC50 [16]: 34.8 µM (active)

Compound: CNc1ccc2c3c(cccc13)C(=O)N(C)C2=O
- IC50 [17]: 3.92 µM (active)
- IC50 [18]: 2.2 µM (active)
- AC50 [19]: 588 nM (active)
- EC50 [20]: > 54.8 µM (inactive)
- AC50 [21]: 399 nM (active)
- EC50 [22]: > 54.8 µM (inactive)
- IC50 [23]: > 89.3 µM (inactive)
- EC50 [24]: 6.57 µM (active)

Compound: O=C(NCCN1CCC2(CC1)C(=O)NCN2c1ccccc1)c1ncc(F)cc1F
- IC50 [25]: 20 µM (active)
- IC50 [26]: 5.4 µM (active)
